Test results from patent US20130209543A1, “ENHANCED TREATMENT REGIMENS USING MTOR INHIBITORS” (Intellikine LLC, priority 2011, published 2013).
Read-outs that look alike come from different tables or passages of the source.

Tests used:
mTOR = target: T1, mTOR (Homo sapiens, UniProt P42345); assay: mTOR kinase inhibition assay; format: biochemical
T1 construct: purchased Invitrogen
Procedure: The compounds described herein and any other mTorC1/mTorC2 inhibitors known in the art can be tested against recombinant mTOR (Invitrogen) in an assay containing 50 mM HEPES, pH 7.5, 1 mM EGTA, 10 mM MgCl2, 2.5 mM, 0.01% Tween, 10 μM ATP (2.5 μCi of μ-32P-ATP), and 3 mg/mL BSA. Rat recombinant PHAS-1/4EBP1 (Calbiochem; 2 mg/mL) is used as a substrate. Reactions are terminated by spotting onto nitrocellulose, which is washed with 1M NaCl/1% phosphoric acid (approximately 6 times, 5-10 minutes each). Sheets are dried and the transferred radioactivity quantitated by phosphorimaging.
For instance, one can use Invitrogen's LanthaScreen™ Kinase assay to test the inhibitors of mTOR disclosed herein. This assay is a time resolved FRET platform that measures the phosphorylation of GFP labeled 4EBP1 by mTOR kinase. The kinase reaction is performed in a white 384 well microtitre plate. The total reaction volume is 20 μl per well and the reaction buffer composition is 50 mM HEPES pH7.5, 0.01% Polysorbate 20, 1 mM EGTA, 10 mM MnCl2, and 2 mM DTT. In the first step, each well receives 2 ul of test compound in 20% dimethylsulphoxide resulting in a 2% DMSO final concentration. Next, 8ul of mTOR diluted in reaction buffer is added per well for a 60 ng/ml final concentration. To start the reaction, 10 ul of an ATP/GFP-4EBP1 mixture (diluted in reaction buffer) is added per well for a final concentration of 10 μM ATP and 0.5 μM GFP-4EBP1. The plate is sealed and incubated for 1 hour at room temperature. […] The plate is sealed, incubated for 1 hour at room temperature, and then read on a plate reader set up for LanthaScreen™ TR-FRET. Data is analyzed and IC50s are generated using GraphPad Prism 5.

PI3K α = PI3K α (Homo sapiens, UniProt P42336); assay: PI3K α kinase assay; format: biochemical
PI3K δ = PI3K δ (Homo sapiens, UniProt O00329); assay: PI3K δ kinase assay; format: biochemical
Chain of PI3K δ (O00329 whole entry, species assumed): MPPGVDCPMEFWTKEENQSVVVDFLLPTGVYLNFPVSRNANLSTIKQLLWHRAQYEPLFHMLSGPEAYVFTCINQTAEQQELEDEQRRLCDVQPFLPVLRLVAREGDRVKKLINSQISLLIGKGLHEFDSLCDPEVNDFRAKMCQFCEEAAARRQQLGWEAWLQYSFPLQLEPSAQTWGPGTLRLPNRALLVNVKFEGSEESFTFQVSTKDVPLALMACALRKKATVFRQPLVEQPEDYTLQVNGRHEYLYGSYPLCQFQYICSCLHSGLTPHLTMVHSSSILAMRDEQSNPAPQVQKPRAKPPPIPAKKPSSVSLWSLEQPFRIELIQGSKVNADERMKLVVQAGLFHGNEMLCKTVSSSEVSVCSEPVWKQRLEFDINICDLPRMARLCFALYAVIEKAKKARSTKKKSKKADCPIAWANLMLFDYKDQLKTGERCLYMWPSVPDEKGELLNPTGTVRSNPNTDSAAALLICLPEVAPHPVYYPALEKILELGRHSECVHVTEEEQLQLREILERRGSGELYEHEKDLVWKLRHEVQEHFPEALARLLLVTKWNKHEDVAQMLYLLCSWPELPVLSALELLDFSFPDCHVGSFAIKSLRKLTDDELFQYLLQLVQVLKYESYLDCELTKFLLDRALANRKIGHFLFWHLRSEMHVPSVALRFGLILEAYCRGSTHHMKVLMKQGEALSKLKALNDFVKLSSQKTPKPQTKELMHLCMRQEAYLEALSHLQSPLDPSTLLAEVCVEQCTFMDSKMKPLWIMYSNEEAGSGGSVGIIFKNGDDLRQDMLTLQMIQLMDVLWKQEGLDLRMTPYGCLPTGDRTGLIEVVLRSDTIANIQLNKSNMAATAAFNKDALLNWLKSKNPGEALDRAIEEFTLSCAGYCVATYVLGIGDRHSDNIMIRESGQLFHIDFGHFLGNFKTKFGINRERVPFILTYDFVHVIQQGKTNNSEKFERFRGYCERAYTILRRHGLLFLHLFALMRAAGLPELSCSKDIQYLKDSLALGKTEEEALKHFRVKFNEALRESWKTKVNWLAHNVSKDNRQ
Chain of PI3K δ (P27986 whole entry partner, species assumed): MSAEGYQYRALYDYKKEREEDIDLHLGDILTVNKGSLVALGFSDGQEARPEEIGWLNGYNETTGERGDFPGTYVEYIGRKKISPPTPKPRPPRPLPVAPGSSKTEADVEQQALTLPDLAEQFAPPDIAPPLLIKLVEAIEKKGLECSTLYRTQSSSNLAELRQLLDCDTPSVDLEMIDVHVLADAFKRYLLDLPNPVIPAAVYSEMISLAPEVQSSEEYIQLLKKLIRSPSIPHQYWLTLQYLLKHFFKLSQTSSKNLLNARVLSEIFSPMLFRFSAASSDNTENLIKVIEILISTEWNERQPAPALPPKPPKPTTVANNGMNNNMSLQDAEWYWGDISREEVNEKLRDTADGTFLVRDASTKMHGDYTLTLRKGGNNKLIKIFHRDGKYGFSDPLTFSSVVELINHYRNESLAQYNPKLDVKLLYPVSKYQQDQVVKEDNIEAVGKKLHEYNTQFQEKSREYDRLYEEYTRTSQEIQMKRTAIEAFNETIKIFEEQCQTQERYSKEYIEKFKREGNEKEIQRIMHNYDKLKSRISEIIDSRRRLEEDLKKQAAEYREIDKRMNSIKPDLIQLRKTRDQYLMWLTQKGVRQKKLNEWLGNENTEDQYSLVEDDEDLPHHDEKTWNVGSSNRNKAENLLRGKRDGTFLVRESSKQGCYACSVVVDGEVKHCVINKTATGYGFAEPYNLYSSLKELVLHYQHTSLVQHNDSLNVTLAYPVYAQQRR

PI3K γ = PI3K γ (Homo sapiens, UniProt P48736); assay: PI3K γ kinase assay; format: biochemical
Chain of PI3K γ (P48736 whole entry, species assumed): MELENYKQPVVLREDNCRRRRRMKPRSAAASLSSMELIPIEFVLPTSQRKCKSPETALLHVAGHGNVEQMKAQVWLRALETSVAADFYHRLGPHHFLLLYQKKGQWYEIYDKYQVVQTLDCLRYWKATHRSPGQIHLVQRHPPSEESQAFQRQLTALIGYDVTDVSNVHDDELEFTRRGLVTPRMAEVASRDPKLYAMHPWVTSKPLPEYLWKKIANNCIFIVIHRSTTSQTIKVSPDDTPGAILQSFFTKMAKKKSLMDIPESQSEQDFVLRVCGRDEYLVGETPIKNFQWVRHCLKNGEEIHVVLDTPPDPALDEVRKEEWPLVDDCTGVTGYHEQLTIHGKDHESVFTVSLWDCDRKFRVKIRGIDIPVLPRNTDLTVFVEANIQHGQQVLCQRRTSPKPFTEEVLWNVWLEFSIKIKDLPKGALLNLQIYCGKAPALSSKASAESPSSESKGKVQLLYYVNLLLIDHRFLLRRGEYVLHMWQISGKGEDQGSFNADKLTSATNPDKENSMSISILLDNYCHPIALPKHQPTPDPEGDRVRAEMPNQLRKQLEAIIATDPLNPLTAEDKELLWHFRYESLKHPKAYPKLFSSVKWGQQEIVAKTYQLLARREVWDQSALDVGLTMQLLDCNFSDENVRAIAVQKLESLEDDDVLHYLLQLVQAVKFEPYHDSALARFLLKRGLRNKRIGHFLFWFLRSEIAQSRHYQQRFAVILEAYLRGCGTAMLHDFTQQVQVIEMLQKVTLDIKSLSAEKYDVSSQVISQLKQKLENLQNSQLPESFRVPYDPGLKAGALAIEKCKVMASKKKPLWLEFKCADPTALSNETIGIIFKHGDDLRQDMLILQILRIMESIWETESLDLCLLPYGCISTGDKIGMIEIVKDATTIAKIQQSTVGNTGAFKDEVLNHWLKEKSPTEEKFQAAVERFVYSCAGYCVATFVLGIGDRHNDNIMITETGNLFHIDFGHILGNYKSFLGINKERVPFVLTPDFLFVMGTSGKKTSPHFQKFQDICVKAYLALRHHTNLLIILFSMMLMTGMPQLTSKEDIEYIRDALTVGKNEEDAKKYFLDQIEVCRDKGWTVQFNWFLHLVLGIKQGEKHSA

PI3K β = PI3K β (Homo sapiens, UniProt P42338); assay: PI3K β kinase assay; format: biochemical
Chain of PI3K β (P42338 whole entry, species assumed): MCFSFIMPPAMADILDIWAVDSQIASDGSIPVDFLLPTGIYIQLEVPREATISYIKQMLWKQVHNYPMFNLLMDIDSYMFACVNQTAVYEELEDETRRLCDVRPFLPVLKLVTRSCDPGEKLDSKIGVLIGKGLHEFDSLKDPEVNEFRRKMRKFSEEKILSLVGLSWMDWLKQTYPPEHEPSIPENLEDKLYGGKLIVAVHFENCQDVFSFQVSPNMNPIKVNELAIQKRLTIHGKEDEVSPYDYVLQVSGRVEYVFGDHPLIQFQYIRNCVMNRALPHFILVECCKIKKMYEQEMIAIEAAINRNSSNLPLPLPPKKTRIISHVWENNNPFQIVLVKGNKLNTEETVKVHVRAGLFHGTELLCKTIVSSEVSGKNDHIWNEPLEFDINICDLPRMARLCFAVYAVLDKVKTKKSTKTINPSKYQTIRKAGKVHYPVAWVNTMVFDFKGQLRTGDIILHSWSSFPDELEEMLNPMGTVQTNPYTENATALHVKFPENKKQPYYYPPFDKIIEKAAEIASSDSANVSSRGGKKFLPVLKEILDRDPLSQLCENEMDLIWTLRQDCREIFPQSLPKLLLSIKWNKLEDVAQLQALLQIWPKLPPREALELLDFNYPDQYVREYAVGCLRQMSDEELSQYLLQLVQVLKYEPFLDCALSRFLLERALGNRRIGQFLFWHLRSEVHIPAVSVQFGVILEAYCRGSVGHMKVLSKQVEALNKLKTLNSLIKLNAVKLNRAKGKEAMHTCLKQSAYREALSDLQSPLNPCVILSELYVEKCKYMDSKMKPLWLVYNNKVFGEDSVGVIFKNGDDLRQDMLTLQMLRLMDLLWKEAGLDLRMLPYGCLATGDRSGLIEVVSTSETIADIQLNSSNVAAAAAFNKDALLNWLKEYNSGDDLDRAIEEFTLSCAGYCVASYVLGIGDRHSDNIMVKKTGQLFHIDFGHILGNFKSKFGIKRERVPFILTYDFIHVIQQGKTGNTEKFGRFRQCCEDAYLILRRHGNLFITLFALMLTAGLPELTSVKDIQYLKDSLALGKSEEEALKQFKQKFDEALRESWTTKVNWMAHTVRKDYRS
Chain of PI3K β (P27986 whole entry partner, species assumed): as the sequence (P27986 whole entry partner, species assumed) above

PC3 = PC3 proliferation; format: cell-based; conditions: Homo sapiens, PC-3; for EC50: Table 1; for IC50: Table 2

Chain of PI3K α (P42336 whole entry, species assumed): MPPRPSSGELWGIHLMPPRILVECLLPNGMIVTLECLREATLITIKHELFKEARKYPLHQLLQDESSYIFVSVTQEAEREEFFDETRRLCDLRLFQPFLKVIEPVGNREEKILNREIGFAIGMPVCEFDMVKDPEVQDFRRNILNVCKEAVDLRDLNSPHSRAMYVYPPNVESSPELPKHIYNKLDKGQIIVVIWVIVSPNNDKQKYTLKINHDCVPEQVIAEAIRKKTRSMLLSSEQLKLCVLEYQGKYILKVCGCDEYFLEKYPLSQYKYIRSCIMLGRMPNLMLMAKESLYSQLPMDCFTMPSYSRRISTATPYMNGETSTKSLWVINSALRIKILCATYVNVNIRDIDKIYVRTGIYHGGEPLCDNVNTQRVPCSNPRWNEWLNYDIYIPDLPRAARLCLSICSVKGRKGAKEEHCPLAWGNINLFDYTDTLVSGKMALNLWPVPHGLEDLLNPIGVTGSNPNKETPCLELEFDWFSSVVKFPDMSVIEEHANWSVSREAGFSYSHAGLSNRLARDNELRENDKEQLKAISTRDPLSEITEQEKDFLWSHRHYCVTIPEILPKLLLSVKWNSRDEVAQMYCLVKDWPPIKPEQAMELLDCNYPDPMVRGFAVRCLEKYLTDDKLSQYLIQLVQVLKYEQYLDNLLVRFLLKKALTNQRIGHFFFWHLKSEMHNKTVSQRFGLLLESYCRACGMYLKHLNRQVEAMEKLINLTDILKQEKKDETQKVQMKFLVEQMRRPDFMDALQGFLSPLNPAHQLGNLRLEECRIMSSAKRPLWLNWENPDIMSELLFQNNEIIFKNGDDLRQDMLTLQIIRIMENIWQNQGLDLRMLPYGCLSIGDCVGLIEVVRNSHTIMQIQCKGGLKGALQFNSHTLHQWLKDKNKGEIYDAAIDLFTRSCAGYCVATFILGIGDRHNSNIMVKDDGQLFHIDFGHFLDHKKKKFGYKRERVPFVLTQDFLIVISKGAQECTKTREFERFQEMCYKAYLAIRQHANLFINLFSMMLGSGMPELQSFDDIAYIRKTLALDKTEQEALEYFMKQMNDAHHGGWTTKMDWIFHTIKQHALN
Chain of PI3K α (P27986 whole entry partner, species assumed): as the sequence (P27986 whole entry partner, species assumed) above

For CC(=O)Nc1nc2cc(-c3nn(C(C)C)c4ncnc(N)c34)ccc2o1 [Compound 2], the IC50 (mTOR; Table 1, read-out: mTOR IC50) was less than 100 nM, the IC50 (PI3K α; Table 1) was less than 10000 nM and the IC50 (PI3K δ; Table 1) was less than 1000 nM. It also gave an IC50 (PI3K γ; Table 1) of less than 1000 nM, an IC50 (PI3K β; Table 1) greater than 10000 nM and an EC50 (PC3) of less than 1000 nM.
CC(C)n1nc(-c2ccc3nc(N)oc3c2)c2c(N)ncnc21 [Compound 4] was tested, and the IC50 (mTOR; Table 1, read-out: mTOR IC50) was less than 1000 nM, the IC50 (PI3K α; Table 1) was less than 10000 nM and the IC50 (PI3K δ; Table 1) was less than 1000 nM. For the same compound, the IC50 (PI3K γ; Table 1) was less than 1000 nM, the IC50 (PI3K β; Table 1) was less than 10000 nM and the EC50 (PC3) was less than 10000 nM.
Compound Nc1nc2cc(-c3nn(C4CCOCC4)c4ncnc(N)c34)ccc2o1 [Compound 5] has an IC50 (mTOR; Table 1, read-out: mTOR IC50) of less than 100 nM, an IC50 (PI3K α; Table 1) of less than 1000 nM and an IC50 (PI3K δ; Table 1) of less than 1000 nM. The IC50 (PI3K γ; Table 1) was less than 100 nM, the IC50 (PI3K β; Table 1) was less than 10000 nM and the EC50 (PC3) was less than 100 nM.
For Nc1nc2cc(-c3nn(C4CCC(N5CCOCC5)CC4)c4ncnc(N)c34)ccc2o1 (stereo not drawn) [Compound 6], the IC50 (mTOR; Table 1, read-out: mTOR IC50) was less than 100 nM, the IC50 (PI3K δ; Table 1) was less than 1000 nM and the IC50 (PI3K β; Table 1) was greater than 10000 nM. It also gave an EC50 (PC3) of less than 1000 nM.
With CC(=O)N1CCC(n2nc(-c3ccc4oc(N)nc4c3)c3c(N)ncnc32)CC1 [Compound 7] the IC50 (mTOR; Table 1, read-out: mTOR IC50) was less than 100 nM, the IC50 (PI3K α; Table 1) was less than 1000 nM and the IC50 (PI3K δ; Table 1) was less than 1000 nM. For the same compound, the IC50 (PI3K γ; Table 1) was less than 10000 nM, the IC50 (PI3K β; Table 1) was less than 10000 nM and the EC50 (PC3) was less than 10000 nM.
CC(C)n1cc(-c2ccc3oc(N)nc3c2)c2c(N)ncnc21 [Compound 8] showed an IC50 (mTOR; Table 1, read-out: mTOR IC50) of less than 100 nM, an IC50 (PI3K α; Table 1) of less than 1000 nM and an IC50 (PI3K δ; Table 1) of less than 1000 nM. For the same compound, the IC50 (PI3K γ; Table 1) was less than 1000 nM, the IC50 (PI3K β; Table 1) was greater than 10000 nM and the EC50 (PC3) was less than 100 nM.
Work on Nc1nc2cc(-c3cn(C4CCOCC4)c4ncnc(N)c34)ccc2o1 [Compound 9] yielded an IC50 (mTOR; Table 1, read-out: mTOR IC50) of less than 100 nM, an IC50 (PI3K α; Table 1) of less than 10000 nM and an IC50 (PI3K β; Table 1) greater than 10000 nM. For the same compound, the EC50 (PC3) was less than 100 nM.
CC(C)n1nc(-c2ccc3onc(N)c3c2)c2c(N)ncnc21 [Compound 10] showed an IC50 (mTOR; Table 1, read-out: mTOR IC50) of less than 10000 nM and an EC50 (PC3) greater than 10000 nM.
CC(=O)Nc1noc2cc(-c3nn(C(C)C)c4ncnc(N)c34)ccc12 [Compound 11] gave an IC50 (mTOR; Table 1, read-out: mTOR IC50) of less than 1000 nM and an EC50 (PC3) greater than 10000 nM.
In the case of CC(C)n1nc(-c2cc3cccc(O)c3[nH]2)c2c(N)ncnc21 [Compound 11], the IC50 (mTOR; Table 2, read-out: mTORC IC50) is reported as less than 5 nM, the IC50 (PI3K α; Table 2) is reported as greater than 500 nM and the IC50 (PI3K δ; Table 2) is reported as 100 to 500 nM. For the same compound, the IC50 (PI3K γ; Table 2) was 100 to 500 nM, the IC50 (PI3K β; Table 2) was greater than 500 nM and the IC50 (PC3) was 25 to 50 nM.
CC(C)n1nc(-c2ccc3c(N)noc3c2)c2c(N)ncnc21 [Compound 12] was tested, and the IC50 (mTOR; Table 1, read-out: mTOR IC50) was less than 1000 nM and the EC50 (PC3) was greater than 10000 nM.
Nc1ncnc2c1c(-c1cc3cc(O)ccc3[nH]1)nn2C1CCCC1 [Compound 12] was tested, and the IC50 (mTOR; Table 2, read-out: mTORC IC50) was 5 to 10 nM, the IC50 (PI3K α; Table 2) was greater than 500 nM and the IC50 (PI3K δ) was greater than 500 nM. The IC50 (PI3K β; Table 2) was greater than 500 nM and the IC50 (PC3) was 25 to 50 nM.
Compound CC(C)n1nc(-c2cc3cc(O)cc(Cl)c3[nH]2)c2c(N)ncnc21 [Compound 15] has an IC50 (mTOR; Table 2, read-out: mTORC IC50) of less than 5 nM, an IC50 (PI3K α; Table 2) greater than 500 nM and an IC50 (PI3K δ; Table 2) of 25 to 50 nM. The IC50 (PI3K γ; Table 2) was 25 to 50 nM, the IC50 (PI3K β; Table 2) was greater than 500 nM and the IC50 (PC3) was 25 to 50 nM.
In the case of CC(C)n1nc(-c2cc3cc(O)cc(F)c3[nH]2)c2c(N)ncnc21 [Compound 16], the IC50 (mTOR; Table 2, read-out: mTORC IC50) is reported as less than 5 nM, the IC50 (PI3K α; Table 2) is reported as greater than 500 nM and the IC50 (PI3K δ; Table 2) is reported as 50 to 100 nM. For the same compound, the IC50 (PI3K γ; Table 2) was 100 to 500 nM, the IC50 (PI3K β; Table 2) was greater than 500 nM and the IC50 (PC3) was 100 to 500 nM.
Compound CC(C)n1nc(-c2cc3ccc(O)cc3[nH]2)c2c(N)ncnc21 [Compound 21] has an IC50 (mTOR; Table 2, read-out: mTORC IC50) of 25 to 50 nM, an IC50 (PI3K α; Table 2) of 100 to 500 nM and an IC50 (PI3K δ; Table 2) of 100 to 500 nM. For the same compound, the IC50 (PI3K γ; Table 2) was 100 to 500 nM and the IC50 (PI3K β; Table 2) was greater than 500 nM.
With Cc1nc(N)c2c(-c3ccc4oc(N)nc4c3)nn(C(C)C)c2n1 [Compound 21] the IC50 (mTOR; Table 1, read-out: mTOR IC50) was less than 1000 nM, the IC50 (PI3K α; Table 1) was greater than 10000 nM and the IC50 (PI3K δ; Table 1) was greater than 10000 nM. The IC50 (PI3K γ; Table 1) was greater than 10000 nM and the IC50 (PI3K β; Table 1) was greater than 10000 nM.
With CC(CO)n1nc(-c2ccc3oc(N)nc3c2)c2c(N)ncnc21 (stereo not drawn) [Compound 23] the IC50 (mTOR; Table 1, read-out: mTOR IC50) was less than 100 nM, the IC50 (PI3K α; Table 1) was less than 10000 nM and the IC50 (PI3K δ; Table 1) was less than 10000 nM. The IC50 (PI3K γ; Table 1) was less than 10000 nM and the IC50 (PI3K β; Table 1) was greater than 10000 nM.
With CC(C)n1nc(-c2cc3ccc(C#N)cc3[nH]2)c2c(N)ncnc21 [Compound 24] the IC50 (mTOR; Table 2, read-out: mTORC IC50) was greater than 500 nM, the IC50 (PI3K α; Table 2) was greater than 500 nM and the IC50 (PC3) was greater than 500 nM.
In the case of CC(C)n1nc(-c2cc3ccc(C(N)=O)cc3[nH]2)c2c(N)ncnc21 [Compound 25], the IC50 (mTOR; Table 2, read-out: mTORC IC50) is reported as 100 to 500 nM, the IC50 (PI3K α; Table 2) is reported as greater than 500 nM and the IC50 (PC3) is reported as greater than 500 nM.
For Nc1nc2cc(-c3nn(C4CC(=O)C4)c4ncnc(N)c34)ccc2o1 [Compound 25], the IC50 (PI3K α; Table 1) was less than 1000 nM, the IC50 (PI3K δ; Table 1) was less than 1000 nM and the IC50 (PI3K γ; Table 1) was less than 100 nM. For the same compound, the IC50 (PI3K β; Table 1) was less than 10000 nM.
With Nc1ncnc2c1c(-c1cc3cc(O)ccc3[nH]1)nn2C1CCCCC1 [Compound 26] the IC50 (mTOR; Table 2, read-out: mTORC IC50) was 5 to 10 nM, the IC50 (PI3K α; Table 2) was greater than 500 nM and the IC50 (PI3K δ; Table 2) was 50 to 100 nM. It also gave an IC50 (PI3K γ; Table 2) of 100 to 500 nM, an IC50 (PI3K β; Table 2) greater than 500 nM and an IC50 (PC3) of 100 to 500 nM.
CC(C)(CO)n1nc(-c2ccc3oc(N)nc3c2)c2c(N)ncnc21 [Compound 27] showed an IC50 (PI3K α; Table 1) of less than 10000 nM, an IC50 (PI3K δ; Table 1) of less than 1000 nM and an IC50 (PI3K γ; Table 1) greater than 10000 nM. For the same compound, the IC50 (PI3K β; Table 1) was greater than 10000 nM.
